Reference: patent US20260226020A1, “Nav 1.7 AND/OR Nav 1.8 BLOCKING HYDRAZIDES, PROCESSES FOR THE PREPARATION THEREOF, COMPOSITIONS, USES, METHODS OF TREATMENT USING SAME AND KITS” (Eurofarma Laboratórios S.A., priority 2023, published 2026)

What was measured:
[1] = biological target: T1, human sodium channels Nav 1.7 (Homo sapiens, UniProt Q15858); test: Automated whole-cell voltage-clamp (ScreenPatch 384P) sodium current block in CHO cells expressing Nav 1.7; type: cell-based; details: CHO cells stably expressing human Nav 1.7; whole cell patch clamp, inactivation step -40 mV 8 s, test step 0 mV (TP1A), room temperature; mean where tested in two or more assays; read-out: Nav1.7 IC50
T1 construct: expressed in transfected cells
Experimental: (§1) Biological assays were performed on Chinese hamster ovary (CHO) cells that express human sodium channels Nav 1.8 or Nav 1.7 in a stable manner.
(§2) The experimental protocol voltage-clamp using the whole cell configuration was established on the automated ScreenPatch© 384P platform (SP384PE, Nanion Technologies, Livingston, NJ) and the results were recorded with a Nanion 384-well Patch Clamp chip (NPC) (Nanion Technologies, Livingston, NJ).
(§3) Formula I compounds were diluted in eight concentrations in the extracellular solution composed of saline saline solution, buffered with HEPES (mM): NaCl, 137; KCl, 4; CaCl2, 3.8; MgCl2, 1; HEPES, 10; Glucose, 10; pH 7.4. The […], 50; CsF, 90; MgCl2, 5; EGTA, 5; HEPES, 10; pH 7.2. The duration of exposure of each compound with cells expressing Nav 1.7 or Nav 1.8 was at least five minutes, and the assays were performed at room temperature.
(§4) The measurements of the sodium currents of Nav 1.8 and Nav 1.7 were obtained using the voltage protocol described below.
(§5) A holding voltage of −100 mV was established followed by an inactivation voltage step at −40 mV for 8 seconds, followed by a step of −100 mV for 20 ms, followed by a 20 ms step for 10 mV for Nav 1.8 or 0 mV for Nav 1.7 (TP1A) before returning to the holding voltage of −100 mV.
(§6) The protocol was repeated at a frequency of 0.05 Hz and the amplitude of the current was quantified throughout the recording of the TP1A phase. The variation in the amplitude of the peak current was evaluated according to the formula described below, after exposing the cells expressing the channels to each concentration of the different compounds:
(§7) wherein ITP1A,basal and ITP1A,molecule represent the peaks of sodium current input into TP1A before exposure to the compound and in the presence of the compound, respectively.
(§8) The decrease in the amplitude of the peak current, after the exposure of the cells to the compounds, was used to calculate the percentage of relative blockage of the channels in relation to the positive control according to the formula below: […]
(§9) wherein % V and % CP represent the means of the values of current inhibition with a vehicle (DMSO) and positive controls, respectively. The sodium currents of the positive control were considered as 100%.
(§10) wherein [Test] represents the concentration of the molecule evaluated, CI50 is the concentration of the compound that generates half of the maximum inhibition, N is the Hill coefficient, and % Block′ is the percentage of sodium channel current (Nav 1.8 and Nav 1.7) blocked at each concentration of the molecule evaluated. Data were obtained by nonlinear regression (nonlinear least squares) with XLfit for Excel (Microsoft, Redmond, WA).
(§11) The compounds were tested in at least one assay to obtain the value of CI50. For compounds that were tested in two or more assays, the results are described as the means of the CI50 values.

[2] = biological target: T2, human sodium channels Nav 1.8 (Homo sapiens, UniProt Q9Y5Y9); test: Automated whole-cell voltage-clamp (ScreenPatch 384P) sodium current block in CHO cells expressing Nav 1.8; type: cell-based; details: CHO cells stably expressing human Nav 1.8; whole cell patch clamp, inactivation step -40 mV 8 s, test step 10 mV (TP1A), room temperature; mean where tested in two or more assays; read-out: Nav1.8 IC50
T2 construct: expressed in transfected cells
Experimental: as §1, §2, §3, §4, §5, §6, §7, §8, §9, §10, §11

T2 sequence (Q9Y5Y9 whole entry): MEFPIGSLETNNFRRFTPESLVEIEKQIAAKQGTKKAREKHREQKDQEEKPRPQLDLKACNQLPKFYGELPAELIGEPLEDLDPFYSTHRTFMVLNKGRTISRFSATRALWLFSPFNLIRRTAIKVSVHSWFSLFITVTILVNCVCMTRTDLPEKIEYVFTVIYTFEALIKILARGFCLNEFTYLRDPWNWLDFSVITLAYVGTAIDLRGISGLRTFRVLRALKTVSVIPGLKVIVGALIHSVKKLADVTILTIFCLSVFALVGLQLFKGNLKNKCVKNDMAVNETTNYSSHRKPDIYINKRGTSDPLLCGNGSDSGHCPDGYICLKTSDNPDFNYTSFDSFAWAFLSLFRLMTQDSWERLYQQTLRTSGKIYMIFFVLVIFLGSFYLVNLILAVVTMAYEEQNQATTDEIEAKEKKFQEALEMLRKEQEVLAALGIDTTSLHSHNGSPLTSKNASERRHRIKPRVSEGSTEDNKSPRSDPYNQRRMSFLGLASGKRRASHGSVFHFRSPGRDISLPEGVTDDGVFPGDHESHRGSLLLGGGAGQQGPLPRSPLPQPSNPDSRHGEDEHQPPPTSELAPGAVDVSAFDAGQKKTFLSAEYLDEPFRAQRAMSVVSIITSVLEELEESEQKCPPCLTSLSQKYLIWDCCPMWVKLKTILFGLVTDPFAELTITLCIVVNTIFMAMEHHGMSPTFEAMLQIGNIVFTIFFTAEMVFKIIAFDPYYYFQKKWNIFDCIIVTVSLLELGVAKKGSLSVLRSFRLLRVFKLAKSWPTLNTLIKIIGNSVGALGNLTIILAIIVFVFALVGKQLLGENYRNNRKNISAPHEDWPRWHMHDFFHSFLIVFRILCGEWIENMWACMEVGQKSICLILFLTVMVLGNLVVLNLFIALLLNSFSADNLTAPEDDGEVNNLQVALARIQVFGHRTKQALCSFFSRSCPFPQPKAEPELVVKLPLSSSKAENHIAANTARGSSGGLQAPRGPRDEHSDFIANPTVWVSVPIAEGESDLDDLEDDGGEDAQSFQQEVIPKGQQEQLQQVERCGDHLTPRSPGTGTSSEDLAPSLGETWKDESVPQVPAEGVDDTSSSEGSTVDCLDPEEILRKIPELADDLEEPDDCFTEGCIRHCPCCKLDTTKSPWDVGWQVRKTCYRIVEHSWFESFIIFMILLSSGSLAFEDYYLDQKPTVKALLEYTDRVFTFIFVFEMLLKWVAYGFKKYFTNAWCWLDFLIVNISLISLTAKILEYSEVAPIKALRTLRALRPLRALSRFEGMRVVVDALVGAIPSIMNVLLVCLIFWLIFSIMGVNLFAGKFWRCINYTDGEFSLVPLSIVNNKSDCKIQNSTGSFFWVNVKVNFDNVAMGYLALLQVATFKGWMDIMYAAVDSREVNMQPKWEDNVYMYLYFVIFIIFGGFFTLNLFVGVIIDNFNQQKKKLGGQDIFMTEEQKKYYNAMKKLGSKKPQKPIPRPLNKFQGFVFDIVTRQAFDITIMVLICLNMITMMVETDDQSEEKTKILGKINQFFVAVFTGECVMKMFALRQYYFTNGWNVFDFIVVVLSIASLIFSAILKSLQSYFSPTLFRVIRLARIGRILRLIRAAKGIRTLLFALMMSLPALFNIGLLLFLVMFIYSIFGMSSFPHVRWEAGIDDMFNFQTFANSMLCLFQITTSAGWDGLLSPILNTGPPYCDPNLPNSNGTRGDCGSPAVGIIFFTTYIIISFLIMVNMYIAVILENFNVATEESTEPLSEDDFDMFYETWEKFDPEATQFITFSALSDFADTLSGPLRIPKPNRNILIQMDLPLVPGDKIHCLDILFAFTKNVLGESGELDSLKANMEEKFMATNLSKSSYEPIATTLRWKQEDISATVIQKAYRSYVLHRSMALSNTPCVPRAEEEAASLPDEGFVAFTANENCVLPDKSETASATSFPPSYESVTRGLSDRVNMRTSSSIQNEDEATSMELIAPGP
T1 sequence (Q15858 whole entry): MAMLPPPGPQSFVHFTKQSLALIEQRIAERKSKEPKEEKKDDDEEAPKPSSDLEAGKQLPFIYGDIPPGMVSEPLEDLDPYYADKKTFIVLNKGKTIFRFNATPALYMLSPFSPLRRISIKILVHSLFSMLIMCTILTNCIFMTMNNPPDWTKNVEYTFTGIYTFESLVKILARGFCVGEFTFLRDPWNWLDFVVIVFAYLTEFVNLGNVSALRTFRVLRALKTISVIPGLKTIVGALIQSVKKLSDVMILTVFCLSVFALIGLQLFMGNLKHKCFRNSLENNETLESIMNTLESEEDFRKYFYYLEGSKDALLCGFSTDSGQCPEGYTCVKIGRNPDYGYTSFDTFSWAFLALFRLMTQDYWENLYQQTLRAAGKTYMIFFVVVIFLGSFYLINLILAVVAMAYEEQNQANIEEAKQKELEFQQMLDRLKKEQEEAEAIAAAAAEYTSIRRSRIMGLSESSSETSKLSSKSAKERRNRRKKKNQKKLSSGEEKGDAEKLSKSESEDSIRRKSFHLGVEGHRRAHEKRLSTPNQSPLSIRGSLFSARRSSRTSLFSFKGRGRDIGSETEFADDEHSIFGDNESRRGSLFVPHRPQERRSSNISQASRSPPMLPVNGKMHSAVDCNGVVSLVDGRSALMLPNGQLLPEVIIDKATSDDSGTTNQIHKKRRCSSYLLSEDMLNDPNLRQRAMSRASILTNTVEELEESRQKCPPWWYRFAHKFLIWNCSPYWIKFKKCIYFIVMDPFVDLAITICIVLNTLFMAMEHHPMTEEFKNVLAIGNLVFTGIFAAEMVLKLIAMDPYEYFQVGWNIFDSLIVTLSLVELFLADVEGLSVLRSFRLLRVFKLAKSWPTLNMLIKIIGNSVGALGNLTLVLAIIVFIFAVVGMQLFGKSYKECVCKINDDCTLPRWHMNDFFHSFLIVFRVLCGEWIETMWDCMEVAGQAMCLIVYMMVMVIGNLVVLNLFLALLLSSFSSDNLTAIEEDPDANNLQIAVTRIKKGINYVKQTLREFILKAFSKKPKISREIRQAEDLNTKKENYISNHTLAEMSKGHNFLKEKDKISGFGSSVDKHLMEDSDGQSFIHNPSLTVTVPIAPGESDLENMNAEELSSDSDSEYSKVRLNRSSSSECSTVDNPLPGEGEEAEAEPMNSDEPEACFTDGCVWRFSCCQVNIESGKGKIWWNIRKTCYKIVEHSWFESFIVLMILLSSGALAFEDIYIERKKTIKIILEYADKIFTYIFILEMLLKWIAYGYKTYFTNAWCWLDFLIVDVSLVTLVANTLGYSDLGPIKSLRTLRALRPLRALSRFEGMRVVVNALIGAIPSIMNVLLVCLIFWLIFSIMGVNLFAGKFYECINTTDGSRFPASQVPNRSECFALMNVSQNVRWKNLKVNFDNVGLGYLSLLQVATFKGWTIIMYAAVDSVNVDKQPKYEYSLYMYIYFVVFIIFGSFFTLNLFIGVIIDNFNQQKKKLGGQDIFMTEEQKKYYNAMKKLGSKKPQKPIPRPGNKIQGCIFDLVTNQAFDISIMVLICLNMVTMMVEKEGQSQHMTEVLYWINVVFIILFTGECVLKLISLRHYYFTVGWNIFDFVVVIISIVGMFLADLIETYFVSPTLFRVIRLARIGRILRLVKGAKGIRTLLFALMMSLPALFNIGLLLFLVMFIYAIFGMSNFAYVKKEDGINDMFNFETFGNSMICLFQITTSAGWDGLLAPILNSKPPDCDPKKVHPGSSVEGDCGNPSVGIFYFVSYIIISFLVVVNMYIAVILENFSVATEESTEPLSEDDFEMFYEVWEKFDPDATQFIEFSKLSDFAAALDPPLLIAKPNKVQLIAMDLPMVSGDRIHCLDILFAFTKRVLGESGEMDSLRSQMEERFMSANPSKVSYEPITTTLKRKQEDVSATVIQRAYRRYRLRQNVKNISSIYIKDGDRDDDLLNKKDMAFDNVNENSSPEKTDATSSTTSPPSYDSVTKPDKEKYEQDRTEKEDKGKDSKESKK

IC50 [1] [nM]	IC50 [2] [nM]	Structure (SMILES)
> 1000	> 1000	CCOc1cc(C)c(-c2cncc(C(=O)NNCc3cc(OC)cc(OC)c3)n2)cn1 [Compound 40, N′-(3,5-dimethoxybenzyl)-6-(6-ethoxy-4-methylpyridin-3-yl)pyrazine-2-carbohydrazide]
> 1000	500 to 1000	CCOc1ccc(-c2cncc(C(=O)NNCc3cc(OC)cc(OC)c3)n2)c(C)n1 [Compound 41, N′-(3,5-dimethoxybenzyl)-6-(6-ethoxy-2-methylpyridin-3-yl)pyrazine-2-carbohydrazide]
> 1000	500 to 1000	COc1cc(CNNC(=O)c2cncc(-c3ccc(OC4CC4)nc3)n2)cc(OC)c1 [Compound 42, 6-(6-cyclopropoxypyridin-3-yl)-N′-(3,5-dimethoxybenzyl)pyrazine-2-carbohydrazide]
> 1000	< 500	CCOc1ccc(-c2cncc(C(=O)NN3CCc4ccc(OC)cc4C3)n2)cc1 [Compound 45, 6-(4-ethoxyphenyl)-N-(7-methoxy-3,4-dihydroisoquinoline-2(1H)-yl)pyrazine-2-carboxamide]
> 1000	> 1000	CCOc1ccc(-c2cnnc(C(=O)NNCc3ccccc3F)c2)cc1 [Compound 47, 5-(4-ethoxyphenyl)-N′-(2-fluorobenzyl)pyridazine-3-carbohydrazide]
> 1000	> 1000	CCOc1ccc(-c2ccnc(C(=O)NNCc3ccccc3F)c2)cc1 [Compound 48, 4-(4-ethoxyphenyl)-N′-(2-fluorobenzyl)picolinohydrazide]
> 1000	< 500	CCOc1ccc(-c2cncc(C(=O)NNCc3ccccc3F)c2)cc1 [Compound 49, 5-(4-ethoxyphenyl)-N′-(2-fluorobenzyl)nicotinohydrazide]
> 1000	> 1000	CCOc1ccc(-c2cccc(C(=O)NNCc3ccccc3F)n2)cc1 [Compound 50, 6-(4-ethoxyphenyl)-N′-(2-fluorobenzyl)picolinohydrazide]
